# Test results as given in ChEMBL document CHEMBL3751825, “Synthesis and protective effect of new ligustrazine derivatives against CoCl2-induced neurotoxicity in differentiated PC12 cells. Part 2” (Medchemcomm, 2015).
# Assay: Neuroprotective activity against cobalt chloride-induced neurotoxicity in rat differentiated PC12 cells
# Assay type: functional, cell-based
# Conditions: pc-12
row,SMILES,EC50 [µM]
1,C=CCc1ccc(OCc2nc(C)c(C)nc2C)c(OC)c1,4.62
2,COc1ccc(C(C)=O)c(OCc2nc(C)c(C)nc2C)c1,< 15
3,COc1cccc(/C=C/C(=O)OCc2nc(C)c(C)nc2C)c1,< 24
4,COc1cc(/C=C/C(=O)OCc2nc(C)c(C)nc2C)cc(OC)c1OC,< 24
5,COc1ccc(/C=C/C(=O)OCc2nc(C)c(C)nc2C)cc1OC,< 24
6,COc1cccc(/C=C/C(=O)OCc2nc(C)c(C)nc2C)c1OC,< 24
7,Cc1nc(C)c(COC(=O)c2cc(OCc3nc(C)c(C)nc3C)c(OCc3nc(C)c(C)nc3C)c(OCc3nc(C)c(C)nc3C)c2)nc1C,> 100
8,COc1ccccc1/C=C/C(=O)OCc1nc(C)c(C)nc1C,< 24
9,COc1ccc(OC)c(/C=C/C(=O)OCc2nc(C)c(C)nc2C)c1,< 24
10,COc1ccc(/C=C/C(=O)OCc2nc(C)c(C)nc2C)c(OC)c1OC,0.719
11,COc1ccc(/C=C/C(=O)OCc2nc(C)c(C)nc2C)cc1,< 24

# Assay: Neuroprotective activity against cobalt chloride-induced neurotoxicity in rat NGF-differentiated PC12 cells assessed as increase of neurite-bearing cell level at 60 uM after 12 hrs
# Conditions: not given
row,SMILES,Activity [%]
1,COc1ccc(/C=C/C(=O)OCc2nc(C)c(C)nc2C)c(OC)c1OC,50.8
